# Where a name gives a salt, the structure may show the parent alone. Marks after values point to notes of the source that are not given here.
# Legend:
# [1] = tested on: rat hearts (reperfusion injury); experiment: Reperfusion injury of the heart: coronary artery occlusion/reperfusion arrhythmias; assay type: in vivo; conditions: for Ventricular fibrilation Insidence (%) / Ventricular fibrilation Insidence (number of animals) / Ventricular tachycardia Insidence (%) / Ventricular tachycardia Insidence (number of animals) / Ventricular fibrilation Duration / Ventricular tachycardia Duration / Ventricular fibrilation Duration (s) / Ventricular tachycardia Duration (s): 20 min reperfusion; for Ventricular fibrilation Duration / Ventricular tachycardia Duration / Ventricular fibrilation Duration (s) / Ventricular tachycardia Duration (s): mean ±SEM; for effect on incidence and duration of ventricular tachycardias and fibrillations and on mortality, in words: versus control, p<0.05
# Text: Capacity of a hydroxyguanidine (PR5) to afford a tissue protective effect in the heart. […] In this model the coronary arteries of rat hearts were occluded, and after some time reperfusion was allowed to occur. During reperfusion events of cardiac arrhythmias are observed. They are well known to be related to the accumulation of oxygen derived free radicals. These arrhythmias are monitored in the animals treated with PR5 and in control animals either receiving no drug or allopurinol. Allopurinol was used as a control because it is well known from the litterature as an agent capable of preventing the generation of oxygen derived free radicals. In brief, rats were anaesthetised with sodium pentobarbital and ventilated with air using a respirator for small animals at a pressure 15-20 cm H2O and a […] rate of 60 strokes/min. ECG (electrocardiogram) and systemic blood pressure was registered on a Physiograph DMP-4B (Narco Bio-Systems, Houston, USA) using, respectively, a standard lead II and a pressure transducer PR-1500 (Narco Bio-Systems, Houston, USA) contected via a catheter to the left carotid artery. The chest was opened via the fourth intercostal space, the pericardium incised and a sling (4/0 silk Medicor, Budapest, Hungary) was placed around the left coronary artery close to its origin. The silk ligature was passed through a piece of plastic tubing, the chest was partially closed and the animal was allowed to recover for 10 min. PR-5, dissolved in 0.9% NaCl, was then injected i.v. 10 min before the occlusion of the coronary artery at doses 1, 3 or 10 mg/kg body weight. As control served the same volume of 0.9% NaCl. The coronary artery was occluded for a period of 10 min by applying tension to the ligature and pressing the tube onto the heart surface. Reperfusion was initiated by removing the clamp and releasing the tension on the ligature and allowing the perfusion to continue for 20 min. Ventricular ectopic activity was assessed during the 20 min reperfusion period by measuring the duration of ventricular tachycardias and ventricular fibrillations from the ECG curves. The results are shown in Table 2, where the results are presented as mean ±SEM (in seconds) for the total duration of ventricular tachycardias and ventricular fibrillations during the 20 min reperfusion period, (or until eventual death of the animal). The incidence of animals showing ventricular tachycardia and ventricular fibrillation are also given Table 2 as the number of animals showing ventricular tachycardia and ventricular fibrillation. Figures in parenthese relate to incidents expressed in % of the total number of animals.
# In Table 2 a star “*” denotes a significant difference from the control at p<0.05 using the appropriate statistical test. Alp=allopurinol. n=number of animals tested.
# [2] = biological target: T1, bovine milk xanthine oxidase (Bos taurus, UniProt P80457); conditions: 20 μM allopurinol, 100 μM xanthine, 0.004 units/ml xanthine oxidase
# Target sequence in this assay (P80457 2-1332): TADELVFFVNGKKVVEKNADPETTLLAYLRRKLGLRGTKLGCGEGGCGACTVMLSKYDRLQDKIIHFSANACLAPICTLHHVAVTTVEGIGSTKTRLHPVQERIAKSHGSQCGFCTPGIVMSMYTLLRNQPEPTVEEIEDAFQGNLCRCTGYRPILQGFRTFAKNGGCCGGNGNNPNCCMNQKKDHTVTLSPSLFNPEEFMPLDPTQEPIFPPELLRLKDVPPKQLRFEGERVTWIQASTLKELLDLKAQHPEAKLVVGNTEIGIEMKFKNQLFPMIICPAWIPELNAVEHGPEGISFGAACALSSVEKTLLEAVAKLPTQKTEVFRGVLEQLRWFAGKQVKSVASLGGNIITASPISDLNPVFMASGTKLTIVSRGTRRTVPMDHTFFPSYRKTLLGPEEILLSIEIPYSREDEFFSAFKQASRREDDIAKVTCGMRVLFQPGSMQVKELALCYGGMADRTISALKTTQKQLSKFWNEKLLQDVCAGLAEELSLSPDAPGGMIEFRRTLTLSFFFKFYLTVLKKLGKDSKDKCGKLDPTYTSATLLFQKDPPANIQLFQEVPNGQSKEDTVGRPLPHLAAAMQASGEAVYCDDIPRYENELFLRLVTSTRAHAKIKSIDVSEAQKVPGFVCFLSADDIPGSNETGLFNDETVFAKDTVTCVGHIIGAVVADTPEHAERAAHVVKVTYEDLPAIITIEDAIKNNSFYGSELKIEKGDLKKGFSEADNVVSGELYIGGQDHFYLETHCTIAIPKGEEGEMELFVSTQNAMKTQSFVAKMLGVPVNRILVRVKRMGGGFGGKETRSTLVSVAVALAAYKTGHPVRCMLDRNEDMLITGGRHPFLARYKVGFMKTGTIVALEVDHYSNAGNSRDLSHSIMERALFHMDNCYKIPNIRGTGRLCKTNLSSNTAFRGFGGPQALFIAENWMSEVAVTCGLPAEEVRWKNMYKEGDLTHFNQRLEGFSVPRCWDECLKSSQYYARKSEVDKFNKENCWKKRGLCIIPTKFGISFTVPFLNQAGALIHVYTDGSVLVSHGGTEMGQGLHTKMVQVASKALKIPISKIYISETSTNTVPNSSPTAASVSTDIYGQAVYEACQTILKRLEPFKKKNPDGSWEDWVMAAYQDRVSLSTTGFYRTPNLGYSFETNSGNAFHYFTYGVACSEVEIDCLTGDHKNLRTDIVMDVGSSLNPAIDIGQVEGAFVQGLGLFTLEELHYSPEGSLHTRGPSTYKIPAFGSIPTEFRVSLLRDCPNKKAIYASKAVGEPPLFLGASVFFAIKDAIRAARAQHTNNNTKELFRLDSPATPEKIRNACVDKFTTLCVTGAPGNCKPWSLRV
# Method: Capacity of allopurinol to inhibit the reduction of hydroxyguanidines by xanthine oxidase. […] In these tests varying amounts of guanoxabenz was added to assays yielding 150 μl final volumes and containing final concentrations 0.004 units/ml of bovine milk xanthine oxidase (Sigma, St. Louis, MO., USA), 100 μM xanthine, 20 μM allopurinol, 50 pM α2-adrenoceptors (in HT29 cell membranes), 33 mM Tris HCl, 1 mM EDTA, pH 7.5, and incubating for 1 hour at 25° C.
# [3] = tested on: rat spleen tissue; experiment: Formation of uric acid in spleen tissue under anaerobic conditions, HPLC
# Method: Capacity of a hydroxyguanidine (PR5) to sustain the formation of uric acid in tissues. […] Pieces of 0.6 g of rat spleen tissue were incubated in 7.5 ml argon-saturated Tris-Ringer buffer (4 mM KCl, 100 mM NaCl, 2 mM CaCl2, 2 mg/ml glucose and 40 mM TrisHCl, pH 7.4) in 50 ml Erlenmeyer flasks at 37° C., care being taken to maintain an atmosphere of argon above the incubations. As aerobic control served identical incubations, except that the buffers were saturated with air and the incubations performed under air. After 30 min the flasks were opened and the tissues minced to obtain tissue cubes with about 1 mm sides. […] The supernatants were then centrifuged using Ultrafree-MC Biomax-10 Millipore filtration devices at 5000×g for 0.5 hr in order to obtain an essentially particle free preparation which was being kept at −20° C. until analysed for the uric acid content using HPLC.
# For analysing the uric acid content the above preparations were thawed and 0.05 ml aliquots were injected onto Waters 2690 Separation Module using a 2.1×250 mm Vydac RP C18, 90A, 201HS1010 column using a linear gradient of 10 mM KH2PO4 (A) and 10 mM KH2PO4 in 50% (v/v) methanol/water (B) (both at pH 4.55 adjusted with phosphoric acid). […] The uric acid peak was eluted after 13 min and was identified and detected according to the spectrum of a standard uric acid reference.
# [4] = biological target: T1, bovine milk xanthine oxidase; experiment: Capacity to sustain oxidation of xanthine by xanthine oxidase in the absence of oxygen, spectrophotometric; assay type: biochemical; set-up: host or cells: bovine milk; conditions: for V = 1000 × (Δabs 295 nm) min^−1 (initial rate of the support of the oxidation of xanthine): 50 μM hydroxyguanidine, 50 μM xanthine, 0.05 units/ml xanthine oxidase, anaerobic, pH 7.5, 20° C., blank subtracted
# Method: Capacities of a series of hydroxyguanidine to sustain the oxidation of xanthine by xanthine oxidase in the absence of oxygen. The capacities of various hydroxyguanidines to sustain the oxidation of xanthine was assayed by using a spectrophotometric method. In this method bovine milk xanthine oxidase was injected to a Helma® sealable cuvette for anaerobic application thereby creating 1 ml of a reaction mixture that contained reagents as follows: 50 μM of a hydroxyguanidine, 50 μM xanthine, 0.05 units/ml bovine milk xanthine oxidase, 50 mM Tris and 1.5 mM EDTA; the pH of the reaction mixture being 7.5, and the temperature 20° C. Anaerobic conditions were assured by pre-gassing all solutions used for 5-10 min, with nitrogen. The rate of formation of uric acid was monitored spectrophotometrically by measuring the increase in absorbance at 295 nm (the absorption maximum for uric acid) at intervals. The relative capacities of the hydroxyguanidines to sustain oxidation of xanthine were estimated from the derivative of the initial linear phase of the curves. To obtain blank readings an equal volume of the solvent of the hydroxyguanidine (water) was added to the reaction mixture in separate experiments and the initial rate of absorbance change was substracted from the rate readings of the tested hydroxyguanidine.
# Exemplary initial rates for the rate of the support of the oxidation of xanthine obtained by assaying the exemplary hydroxyguanidines listed above by the method in the present example are furthermore given in Table 2: […]
# Target sequence in this assay (P80457 whole entry): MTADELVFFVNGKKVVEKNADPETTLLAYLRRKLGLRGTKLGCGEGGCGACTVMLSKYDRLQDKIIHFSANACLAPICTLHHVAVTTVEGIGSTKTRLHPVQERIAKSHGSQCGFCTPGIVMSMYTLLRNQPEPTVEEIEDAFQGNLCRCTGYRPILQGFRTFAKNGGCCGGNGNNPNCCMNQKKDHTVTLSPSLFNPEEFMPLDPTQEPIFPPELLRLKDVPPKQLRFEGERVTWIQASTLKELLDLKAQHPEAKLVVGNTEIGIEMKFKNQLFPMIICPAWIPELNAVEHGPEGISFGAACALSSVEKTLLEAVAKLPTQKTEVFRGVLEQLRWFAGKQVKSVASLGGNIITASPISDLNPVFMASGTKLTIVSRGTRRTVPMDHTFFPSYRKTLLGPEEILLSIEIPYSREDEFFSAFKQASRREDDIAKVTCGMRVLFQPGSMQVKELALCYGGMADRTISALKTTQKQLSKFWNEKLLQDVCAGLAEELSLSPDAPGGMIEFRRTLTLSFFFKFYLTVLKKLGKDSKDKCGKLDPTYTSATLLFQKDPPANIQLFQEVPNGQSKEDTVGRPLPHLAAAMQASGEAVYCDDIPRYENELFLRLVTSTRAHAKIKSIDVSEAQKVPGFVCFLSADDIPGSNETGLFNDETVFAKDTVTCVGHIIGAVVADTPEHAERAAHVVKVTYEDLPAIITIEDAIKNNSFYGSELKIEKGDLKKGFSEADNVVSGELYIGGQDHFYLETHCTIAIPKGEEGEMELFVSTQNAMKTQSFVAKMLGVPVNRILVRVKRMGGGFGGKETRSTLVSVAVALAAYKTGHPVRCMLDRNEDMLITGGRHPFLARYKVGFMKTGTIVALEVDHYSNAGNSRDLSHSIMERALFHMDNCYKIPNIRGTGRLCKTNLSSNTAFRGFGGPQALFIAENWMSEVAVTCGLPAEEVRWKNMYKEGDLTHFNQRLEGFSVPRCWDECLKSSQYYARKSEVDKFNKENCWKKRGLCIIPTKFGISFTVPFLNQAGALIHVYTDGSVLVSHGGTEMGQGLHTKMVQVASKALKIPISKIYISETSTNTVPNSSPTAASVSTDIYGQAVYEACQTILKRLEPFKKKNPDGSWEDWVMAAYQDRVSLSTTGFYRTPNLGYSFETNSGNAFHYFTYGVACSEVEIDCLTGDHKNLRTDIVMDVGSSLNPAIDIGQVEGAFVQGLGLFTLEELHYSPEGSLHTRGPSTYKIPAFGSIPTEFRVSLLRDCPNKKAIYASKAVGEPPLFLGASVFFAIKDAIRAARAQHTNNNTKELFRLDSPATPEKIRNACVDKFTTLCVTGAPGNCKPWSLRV
# [5] = 1 mg/kg i.v. 10 min before occlusion
# [6] = 3 mg/kg i.v. 10 min before occlusion
compound,measurement,setting,value
"Oc1ncnc2[nH]ncc12 [Allopurinol, 1H-pyrazolo[3,4-d]pyrimidin-4ol, reference compound]",Mortality Insidence (%),[1]; 10 mg/kg,7%
same,Mortality Insidence (number of animals),[1]; 10 mg/kg,1
same,Ventricular fibrilation Insidence (%),[1]; 10 mg/kg,50%
same,Ventricular fibrilation Insidence (number of animals),[1]; 10 mg/kg,7
same,Ventricular tachycardia Insidence (%),[1]; 10 mg/kg,64%
same,Ventricular tachycardia Insidence (number of animals),[1]; 10 mg/kg,9
same,Ventricular fibrilation Duration,[1]; 10 mg/kg,30 ± 10 s
same,Ventricular tachycardia Duration,[1]; 10 mg/kg,59 ± 12 s
same,"effect on incidence and duration of ventricular tachycardias and fibrillations and on mortality, in words",[1],"reduces these indices, although to a lesser extent than 3-10 mg/kg of PR5"
same,decrease in the apparent affinity of guanoxabenz on addition of allopurinol,[2],about 24 fold
"COc1ccc(C=NNC(=N)NO)c(Cl)c1OC [PR5, N-(3,4-Dimethoxy-2-chlorobenzylideneamino)-N′-hydroxyguanidine tosylate]",Mortality Insidence (%),[1]; 1 mg/kg i.v.,14%
same,Mortality Insidence (number of animals),[1]; 1 mg/kg i.v.,2
same,Ventricular tachycardia Insidence (%),[1]; [5],79%
same,Ventricular tachycardia Insidence (number of animals),[1]; [5],11
same,Ventricular fibrilation Insidence (%),[1]; 1 mg/kg i.v.,57%
same,Ventricular fibrilation Insidence (number of animals),[1]; 1 mg/kg i.v.,8
same,Ventricular fibrilation Duration,[1]; 1 mg/kg i.v.,34 ± 9 s
same,Ventricular tachycardia Duration,[1]; 1 mg/kg i.v.,61 ± 11 s
same,Mortality Insidence (%),[1]; 3 mg/kg i.v.,0 (0)* %
same,Mortality Insidence (number of animals),[1]; 3 mg/kg i.v.,0 (0)*
same,Ventricular tachycardia Insidence (%),[1]; [6],64%
same,Ventricular tachycardia Insidence (number of animals),[1]; [6],9
same,Ventricular fibrilation Insidence (%),[1]; 3 mg/kg i.v.,43%
same,Ventricular fibrilation Insidence (number of animals),[1]; 3 mg/kg i.v.,6
same,Ventricular fibrilation Duration (s),[1]; 3 mg/kg i.v.,20 ± 7* s
same,Ventricular tachycardia Duration (s),[1]; 3 mg/kg i.v.,38 ± 7* s
same,Mortality Insidence (%),[1]; 10 mg/kg,7%
same,Mortality Insidence (number of animals),[1]; 10 mg/kg,1
same,Ventricular fibrilation Insidence (%),[1]; 10 mg/kg,36%
same,Ventricular fibrilation Insidence (number of animals),[1]; 10 mg/kg,5
same,Ventricular tachycardia Insidence (%),[1]; 10 mg/kg,57%
same,Ventricular tachycardia Insidence (number of animals),[1]; 10 mg/kg,8
same,Ventricular fibrilation Duration (s),[1]; 10 mg/kg,17 ± 5* s
same,Ventricular tachycardia Duration (s),[1]; 10 mg/kg,34 ± 7* s
same,"effect on incidence and duration of ventricular tachycardias and fibrillations and on mortality, in words",[1],significant decrease
same,uric acid in original incubation medium,"[3]; 0.5 mM PR5, anaerobic (argon), 60 min, 37° C.",285.5 µmol/L
same,"formation of uric acid under the anaerobic conditions, in words","[3]; 0.5 mM PR5, compared with aerobic control",restored completely to that of the aerobic control
same,V = 1000 × (Δabs 295 nm) min^−1 (initial rate of the support of the oxidation of xanthine),[4],96 1000 × (Δabs 295 nm) min^−1
same,"activity / capacity to undergo reduction (reaction A), in words",[4]; as disclosed in Example 7,high activity
"COc1ccc(/C=N/NC(=N)NO)cc1F [DWO7, reference compound]",V = 1000 × (Δabs 295 nm) min^−1 (initial rate of the support of the oxidation of xanthine),[4],30.7 1000 × (Δabs 295 nm) min^−1
